Assay results published in patent publication US8558016B2, “Polyphenol derivative and method for producing the same” (Kabaushiki Kaisha Riverson, priority 2009, dated 2013).

Key:
3T3-L1 adipocytes = test: Adiponectin secretion promoting effect, Western blotting of culture supernatant; type: cell-based; conditions: for adiponectin secretion promoting effect: in words, no time or concentration stated
Description: (§1) 3T3-L1 adipocytes can be allowed to grow and maintained in a 5% CO2 environment in high-glucose DMEM containing 50 U/ml penicillin, 50 μg/ml streptomycin, and 10% FCS. The 3T3-L1 cells were subcultured in a dish of 3.5 cm in diameter until confluent and then sufficiently differentiated into adipocytes by culture for another 2 days in the presence of insulin (10 μg/ml), dexamethasone ([…]), and IBMX (3-isobutyl-1-methylxanthine) (0.5 mM). Teadenol A (10 μM) or DMSO (vehicle control) was added to the sufficiently differentiated 3T3-L1 adipocytes, and each culture supernatant was collected after 8, 24, 32, and 48 hours. The amount of adiponectin secreted was determined by Western blotting method.

[1] = Test of visceral fat and adiponectin functions (method not described); type: in vivo; conditions: in words
PTP1B = PTP1B expression inhibitory effect in 3T3-L1 adipocytes, Western blotting; type: cell-based; conditions: for PTP1B expression inhibitory effect: in words, no time or concentration stated
Description: as §1
Teadenol A (10 μM) or DMSO (vehicle control) was added to the sufficiently differentiated 3T3-L1 adipocytes. After culture for 8, 24, 32, and 48 hours, the cells were collected, and the amount of PTP1B […] and the amount of α-tubulin were determined by Western blotting method.

SMILES	adiponectin secretion promoting activity (3T3-L1 adipocytes; 10 μM, 3T3-L1 adipocytes, statistically significant difference after 24 and 48 hours)	adiponectin [1]	visceral fat [1]	PTP1B expression inhibitory activity (PTP1B; 10 μM, 3T3-L1 adipocytes, statistically significant difference after 32 hours)	adiponectin secretion promoting effect (3T3-L1 adipocytes)	PTP1B expression inhibitory effect (PTP1B)
C=C1C=C(C(=O)O)O[C@@H]2Cc3c(O)cc(O)cc3O[C@H]12 [Teadenol A, teadenol A]	effective	increasing adiponectin	decreasing visceral fat	effective	–	–
C=C1C=C(C(=O)O)O[C@@H]2Cc3c(O)cc(O)cc3O[C@@H]12 [Teadenol B, teadenol B]	–	–	–	–	effective	effective
C=C1C=C(C(=O)O)O[C@@H]2Cc3c(O)cc(O)cc3OC12 (some centres unmarked) [compound (1)]	–	–	–	–	confirmed to have	confirmed to have
